Structures can show the parent of a compound that is named as a salt.
Assays:
[1] = target: Cathepsin S (UniProt P25774); experiment: Cathepsin enzyme inhibition assay (fluorogenic peptide substrate Z-Val-Val-Arg-AMC), Cathepsin S; assay type: biochemical, human and mouse; conditions: enzyme 1 nM, substrate 20 μM, pH 6.5; read-out: CatS IC50
Outline: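 Human or mouse cathepsin S (1 nM) was run in 100 mM potassium phosphate pH 6.5 with 5 mM EDTA, 0.001% Triton X-100 and 5 mM DTT. The rise in AMC fluorescence from cleavage was measured, and IC50 values were calculated by standard methods and expressed in μM.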

[2] = target: Cat L (UniProt P07711); experiment: Cathepsin enzyme inhibition assay (fluorogenic peptide substrate Z-Val-Val-Arg-AMC), Cathepsin L; assay type: biochemical, human and mouse; conditions: enzyme 1 nM, substrate 20 μM, pH 6.5; read-out: CatL IC50
Outline: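 Cathepsin L at 1 nM was mixed with compound, then started with 20 μM Z-Val-Val-Arg-AMC in pH 6.5 potassium phosphate with EDTA, Triton X-100 and 5 mM DTT. AMC fluorescence (ex 360/em 465 nm) was followed over 20 min. IC50 is given in μM.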

SMILES | IC50 [1] [nM] | IC50 [2] [nM]
CC(=O)N1C[C@H](S(=O)(=O)c2ccccc2C(F)(F)F)C[C@H]1C(=O)NC1(C#N)CC1 [Example 101, (2S,4R)-1-Acetyl-4-(2-trifluoromethyl-benzenesulfonyl)-pyrrolidine-2-carboxylic acid (1-cyano-cyclopropyl)-amide] | 6.7 | ≥ 25000
N#CC1(NC(=O)[C@@H]2C[C@@H](S(=O)(=O)c3ccccc3C(F)(F)F)CN2C(=O)C(F)(F)F)CC1 [Example 102, (2S,4R)-1-(2,2,2-Trifluoro-acetyl)-4-(2-trifluoromethyl-benzenesulfonyl)-pyrrolidine-2-carboxylic acid (1-cyano-cyclopropyl)-amide] | 3.6 | ≥ 25000
CCC(=O)N1C[C@H](S(=O)(=O)c2ccccc2C(F)(F)F)C[C@H]1C(=O)NC1(C#N)CC1 [Example 103, (2S,4R)-1-Propionyl-4-(2-trifluoromethyl-benzenesulfonyl)-pyrrolidine-2-carboxylic acid (1-cyano-cyclopropyl)-amide] | 1.6 | ≥ 25000
N#CC1(NC(=O)[C@@H]2C[C@@H](S(=O)(=O)c3ccccc3C(F)(F)F)CN2C(=O)C2CCCCC2)CC1 [Example 104, (2S,4R)-1-Cyclohexanecarbonyl-4-(2-trifluoromethyl-benzenesulfonyl)-pyrrolidine-2-carboxylic acid (1-cyano-cyclopropyl)-amide] | 0.2 | ≥ 25000
N#CC1(NC(=O)[C@@H]2C[C@@H](S(=O)(=O)c3ccccc3C(F)(F)F)CN2C(=O)C2CCC(C(F)(F)F)CC2)CC1 (stereo partly drawn) [Example 105, (2S,4R)-4-(2-Trifluoromethyl-benzenesulfonyl)-1-(4-trifluoromethyl-cyclohexanecarbonyl)-pyrrolidine-2-carboxylic acid (1-cyano-cyclopropyl)-amide] | 0.3 | ≥ 25000
N#CC1(NC(=O)[C@@H]2C[C@@H](S(=O)(=O)c3ccccc3C(F)(F)F)CN2C(=O)c2ccc(F)cc2)CC1 [Example 106, (2S,4R)-1-(4-Fluoro-benzoyl)-4-(2-trifluoromethyl-benzenesulfonyl)-pyrrolidine-2-carboxylic Acid (1-cyano-cyclopropyl)-amide] | 0.4 | ≥ 25000
N#CC1(NC(=O)[C@@H]2C[C@@H](S(=O)(=O)c3ccccc3C(F)(F)F)CN2Cc2ccccc2)CC1 [Example 107, (2S,4R)-1-Benzyl-4-(2-trifluoromethyl-benzenesulfonyl)-pyrrolidine-2-carboxylic acid (1-cyano-cyclopropyl)-amide] | 25 | 16600
N#CC1(NC(=O)[C@@H]2C[C@@H](S(=O)(=O)c3ccccc3C(F)(F)F)CN2Cc2ccncc2)CC1 [Example 108, (2S,4R)-1-Pyridin-4-ylmethyl-4-(2-trifluoromethyl-benzenesulfonyl)-pyrrolidine-2-carboxylic Acid (1-cyano-cyclopropyl)-amide] | 5.8 | 47700
N#CC1(NC(=O)[C@@H]2C[C@@H](S(=O)(=O)c3ccccc3C(F)(F)F)CN2CC(F)(F)C(F)(F)F)CC1 [Example 109, (2S,4R)-1-(2,2,3,3,3-Pentafluoro-propyl)-4-(2-trifluoromethyl-benzenesulfonyl)-pyrrolidine-2-carboxylic acid (1-cyano-cyclopropyl)-amide] | 12.7 | ≥ 25000
COCCN1C[C@H](S(=O)(=O)c2ccccc2C(F)(F)F)C[C@H]1C(=O)NC1(C#N)CC1 [Example 110, (2S,4R)-1-(2-Methoxy-ethyl)-4-(2-trifluoromethyl-benzenesulfonyl)-pyrrolidine-2-carboxylic Acid (1-cyano-cyclopropyl)-amide] | 60.5 | ≥ 25000
CC(=O)N1C[C@H](S(=O)(=O)c2ccc(-n3cccn3)cc2C(F)(F)F)C[C@H]1C(=O)NC1(C#N)CC1 [Example 111, (2S,4R)-1-Acetyl-4-(4-pyrazol-1-yl-2-trifluoromethyl-benzenesulfonyl)-pyrrolidine-2-carboxylic acid (1-cyano-cyclopropyl)-amide] | 0.7 | ≥ 25000
CC(=O)N1C[C@H](S(=O)(=O)c2ccc(-n3ccnc3)cc2C(F)(F)F)C[C@H]1C(=O)NC1(C#N)CC1 [Example 112, (2S,4R)-1-Acetyl-4-(4-imidazol-1-yl-2-trifluoromethyl-benzenesulfonyl)-pyrrolidine-2-carboxylic acid (1-cyano-cyclopropyl)-amide] | 0.8 | ≥ 25000
CC(C)CS(=O)(=O)[C@@H]1C[C@@H](C(=O)NC2(C#N)CC2)N(C(=O)OC(C)(C)C)C1 [Example 113, (2S,4R)-2-(1-Cyano-cyclopropylcarbamoyl)-4-(2-methyl-propane-1-sulfonyl)-pyrrolidine-1-carboxylic acid tert-butyl ester] | 3130 | ≥ 25000
CC(C)CS(=O)(=O)[C@H]1CN[C@H](C(=O)NC2(C#N)CC2)C1 [Example 114, (2S,4R)-4-(2-Methyl-propane-1-sulfonyl)-pyrrolidine-2-carboxylic acid (1-cyano-cyclopropyl)-amide Hydrochloride] | 3500 | ≥ 25000
N#CCNC(=O)C12CC(S(=O)(=O)c3ccccc3)CN1CC(F)(F)C2 (stereo not shown) [Example 115, 6-Benzenesulfonyl-2,2-difluoro-tetrahydro-pyrrolizine-7a-carboxylic acid cyanomethyl-amide] | 48 | 3470
N#CCNC(=O)C12CC(F)(F)CN1CCC2S(=O)(=O)c1ccccc1 (stereo not shown) [Example 116, 1-Benzenesulfonyl-6,6-difluoro-tetrahydro-pyrrolizine-7a-carboxylic acid cyanomethyl-amide, diasteromer Δ1] | 35.5 | ≥ 25000
N#CCNC(=O)C12CC(F)(F)CN1CCC2S(=O)(=O)c1ccccc1 (stereo not shown) [Example 117, 1-Benzenesulfonyl-6,6-difluoro-tetrahydro-pyrrolizine-7a-carboxylic acid cyanomethyl-amide, diasteromer Δ2] | 86.5 | ≥ 25000
COC(=O)c1ccc(C(=O)N2C[C@H](S(=O)(=O)c3ccccc3C(F)(F)F)C[C@H]2C(=O)NC2(C#N)CC2)cc1 [Example 118, 4-[(2S,4R)-2-(1-Cyano-cyclopropylcarbamoyl)-4-(2-trifluoromethyl-benzenesulfonyl)-pyrrolidine-1-carbonyl]-benzoic acid methyl ester] | 0.9 | ≥ 25000
CC(C)(C)OC(=O)N1C[C@H](S(=O)(=O)c2ccc(-n3cccn3)cc2Cl)C[C@H]1C(=O)NC1(C#N)CC1 [Example 120, (2S,4R)-4-(2-Chloro-4-pyrazol-1-yl-benzenesulfonyl)-2-(1-cyano-cyclopropylcarbamoyl)-pyrrolidine-1-carboxylic acid tert-butyl ester] | 2.8 | ≥ 25000
CC(C)(C)OC(=O)N1C[C@H](S(=O)(=O)c2ccc(N3CCCCC3)cc2Cl)C[C@H]1C(=O)NC1(C#N)CC1 [Example 121, (2S,4R)-4-(2-Chloro-4-piperidin-1-yl-benzenesulfonyl)-2-(1-cyano-cyclopropylcarbamoyl)-pyrrolidine-1-carboxylic acid tert.-butyl ester] | 4.1 | 23700
CC(Oc1ccc(S(=O)(=O)[C@@H]2C[C@@H](C(=O)NC3(C#N)CC3)N(C(=O)OC(C)(C)C)C2)c(Cl)c1)C(F)(F)F (stereo partly drawn) [Example 122, (2S,4R)-4-[2-Chloro-4-(2,2,2-trifluoro-1-methyl-ethoxy)-benzenesulfonyl]-2-(1-cyano-cyclopropylcarbamoyl)-pyrrolidine-1-carboxylic acid tert.-butyl ester] | 9.4 | 23800
CC(C)C[C@]1(C(=O)NC2(C#N)CC2)C[C@H](S(C)(=O)=O)[C@@H](c2ccc(F)cc2)N1 [Example 123, (2R,4S,5R)-5-(4-Fluoro-phenyl)-2-isobutyl-4-methanesulfonyl-pyrrolidine-2-carboxylic acid (1-cyano-cyclopropyl)-amide] | 2610 | ≥ 25000
CC(C)(C)OC(=O)N1C[C@H](S(=O)(=O)c2ccc(F)cc2Cl)C[C@H]1C(=O)NC1(C#N)CC1 [Example 124, (2S,4R)-4-(2-Chloro-4-fluoro-benzenesulfonyl)-2-(1-cyano-cyclopropylcarbamoyl)-pyrrolidine-1-carboxylic acid tert.-butyl ester] | 12.5 | ≥ 25000
CC(C)C[C@]1(C(=O)NC2(C#N)CC2)C[C@H](S(C)(=O)=O)[C@@H](c2ccc(F)cc2)N1C(=O)OC(C)(C)C [Example 125, (2R,4S,5R)-2-(1-Cyano-cyclopropylcarbamoyl)-5-(4-fluoro-phenyl)-2-isobutyl-4-methanesulfonyl-pyrrolidine-1-carboxylic acid tert.-butyl ester] | 195 | ≥ 25000
CC(C)C[C@]1(C(=O)NC2(C#N)CC2)C[C@H](S(=O)(=O)c2ccccc2)[C@@H](c2ccc(F)cc2)N1 [Example 126, (2R,4S,5R)-4-Benzenesulfonyl-5-(4-fluoro-phenyl)-2-isobutyl-pyrrolidine-2-carboxylic acid (1-cyano-cyclopropyl)-amide] | 1250 | ≥ 25000
N#CC1(NC(=O)[C@@H]2C[C@@H](S(=O)(=O)c3ccc(N4CCCCC4)cc3Cl)CN2)CC1 [Example 127, (2S,4R)-4-(2-Chloro-4-piperidin-1-yl-benzenesulfonyl)-pyrrolidine-2-carboxylic acid (1-cyano-cyclopropyl)-amide] | 2 | 6000
